Measurements as given in patent US12023333B2, “Phenyl-sulfamoyl.benzoyc acids as ERAP1 modulators” (GREY WOLF THERAPEUTICS LIMITED, priority 2019, dated 2024).

Target: T1, Purified ERAP1(37-941)-10His (ERAP1) (Homo sapiens, UniProt Q9NZ08)
T1 construct: Purified ERAP1(37-941)-10His (ERAP1); 10His (C)
Assay: ERAP1 mediated hydrolysis of an amide substrate measured in a biochemical system (10-mer decapeptide substrate)
Conditions: 10-mer substrate, 23° C. for 1 h, excitation 279 nm and emission 355 nm; read-out: IC50 vs Decapeptide WRVYEKC(Dnp)ALK-acid (where Dnp is Dinitrophenyl maleimide) (10-mer)
Outline: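 ERAP1(37-941)-10His preincubated with compound in 25 mM Bis-tris propane, 0.05% HPMC, pH 7.75, then reacted 1 h at 23 °C with 10-mer WRVYEKC(Dnp)ALK (100 μM solution added in equal volume). Fluorescence read at ex 279/em 355 nm; IC50 from 4-parameter fit.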

T1 sequence (Q9NZ08 37-941): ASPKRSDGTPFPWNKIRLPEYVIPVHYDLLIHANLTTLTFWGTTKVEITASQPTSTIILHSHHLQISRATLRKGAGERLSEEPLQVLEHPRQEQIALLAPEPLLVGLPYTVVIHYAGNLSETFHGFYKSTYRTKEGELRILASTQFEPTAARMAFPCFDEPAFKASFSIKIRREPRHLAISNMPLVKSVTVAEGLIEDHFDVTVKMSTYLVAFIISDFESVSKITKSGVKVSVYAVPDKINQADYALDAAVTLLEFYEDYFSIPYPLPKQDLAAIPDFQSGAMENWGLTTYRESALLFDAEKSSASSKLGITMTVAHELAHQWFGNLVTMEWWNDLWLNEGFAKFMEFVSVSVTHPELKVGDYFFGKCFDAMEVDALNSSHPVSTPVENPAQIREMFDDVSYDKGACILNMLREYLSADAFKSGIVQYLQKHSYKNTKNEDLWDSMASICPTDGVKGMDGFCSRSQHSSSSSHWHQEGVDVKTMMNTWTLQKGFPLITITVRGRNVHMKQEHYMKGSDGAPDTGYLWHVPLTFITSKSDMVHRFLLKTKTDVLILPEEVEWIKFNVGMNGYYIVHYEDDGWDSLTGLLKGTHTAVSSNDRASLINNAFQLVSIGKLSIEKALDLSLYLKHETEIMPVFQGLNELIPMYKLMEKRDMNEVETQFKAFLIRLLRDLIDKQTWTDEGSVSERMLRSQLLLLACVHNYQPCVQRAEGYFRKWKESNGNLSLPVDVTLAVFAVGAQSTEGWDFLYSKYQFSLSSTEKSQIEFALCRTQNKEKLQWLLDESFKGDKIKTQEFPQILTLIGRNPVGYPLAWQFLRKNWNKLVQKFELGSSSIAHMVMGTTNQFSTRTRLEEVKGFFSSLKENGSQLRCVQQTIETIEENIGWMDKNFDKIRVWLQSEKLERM

`CCc1ccc(C(=O)O)cc1S(=O)(=O)Nc1cc(C(F)(F)F)ccc1-c1ccc(OC)s1` [Example 59, 4-ethyl-3-(N-(2-(5-methoxythiophen-2-yl)-5-(trifluoromethyl)phenyl)sulfamoyl)benzoic acid] and `CCc1ccc(C(=O)O)cc1S(=O)(=O)Nc1cc(C(F)(F)F)ccc1-c1ccc(Cl)s1` [Example 70, 3-(N-(2-(5-chlorothiophen-2-yl)-5-(trifluoromethyl)phenyl)sulfamoyl)-4-ethylbenzoic acid] cannot be ordered by IC50: < 500 nM for the first, < 500 nM for the second.

`COc1ccc(C(=O)O)cc1S(=O)(=O)Nc1cc(-c2nnn[nH]2)ccc1-c1ccccc1` [Example 63, 3-(N-(4-(tetrazol-5-yl)-[1,1′-biphenyl]-2-yl)sulfamoyl)-4-methoxybenzoic acid] and `Cc1sncc1-c1ccc(-c2ccccc2)c(NS(=O)(=O)c2cc(C(=O)O)ccc2C2CC2)c1` [Example 148, 4-cyclopropyl-3-(N-(4-(5-methylisothiazol-4-yl)-[1,1′-biphenyl]-2-yl)sulfamoyl)benzoic acid] cannot be ordered by IC50: < 500 nM for the first, < 500 nM for the second.

`N#Cc1cc(NS(=O)(=O)c2cc(C(=O)O)ccc2C2CC2)c(-c2nccs2)cc1F` [Example 183, 3-(N-(5-cyano-4-fluoro-2-(thiazol-2-yl)phenyl)sulfamoyl)-4-cyclopropylbenzoic acid] and `N#Cc1cc(NS(=O)(=O)c2cc(C(=O)O)ccc2C2CC2)c(-c2ccccn2)cc1F` [Example 154, 3-(N-(5-cyano-4-fluoro-2-(pyridin-2-yl)phenyl)sulfamoyl)-4-cyclopropylbenzoic acid] cannot be ordered by IC50: < 500 nM for the first, < 500 nM for the second.

`Cc1ccc(-c2ccc(S(C)(=O)=O)cc2NS(=O)(=O)c2cc(C(=O)O)ccc2C2CC2)s1` [Example 103, 4-cyclopropyl-3-(N-(5-(methylsulfonyl)-2-(5-methylthiophen-2-yl)phenyl)sulfamoyl)benzoic acid] and `CS(=O)(=O)c1ccc(-c2ccc(F)s2)c(NS(=O)(=O)c2cc(C(=O)O)ccc2C2CC2)c1` [Example 116, 4-cyclopropyl-3-(N-(2-(5-fluorothiophen-2-yl)-5-(methylsulfonyl)-phenyl)sulfamoyl)benzoic acid] cannot be ordered by IC50: < 500 nM for the first, < 500 nM for the second.

`COc1cccc(-c2ccc(C(F)(F)F)cc2NS(=O)(=O)c2cc(C(=O)O)ccc2OC)c1` [Example 17, 4-methoxy-3-(N-(3′-methoxy-4-(trifluoromethyl)-[1,1′-biphenyl]-2-yl)sulfamoyl)benzoic acid] and `COc1ccc(C(=O)O)cc1S(=O)(=O)Nc1cc(C(F)(F)F)ccc1-c1cccc(Cl)c1` [Example 46, 3-(N-(3′-chloro-4-(trifluoromethyl)-[1,1′-biphenyl]-2-yl)sulfamoyl)-4-methoxybenzoic acid] cannot be ordered by IC50: < 5000 nM for the first, < 500 nM for the second.

`COc1ccc(C(=O)O)cc1S(=O)(=O)Nc1cc(C(F)(F)F)ccc1-n1cccc1` [Example 35, 3-(N-(2-(pyrrol-1-yl)-5-(trifluoromethyl)phenyl)sulfamoyl)-4-methoxybenzoic acid] and `O=C(O)c1ccc(C2CC2)c(S(=O)(=O)Nc2cc(C(F)(F)F)ccc2-n2cccc2)c1` [Example 99, 3-(N-(2-pyrrol-1-yl-5-(trifluoromethyl)phenyl)sulfamoyl)-4-cyclopropylbenzoic acid] cannot be ordered by IC50: < 500 nM for the first, < 500 nM for the second.

`O=C(O)c1ccc(C2CC2)c(S(=O)(=O)Nc2cc(C(F)(F)F)ccc2-c2ccc(Cl)s2)c1` [Example 113, 3-(N-(2-(5-chlorothiophen-2-yl)-5-(trifluoromethyl)phenyl)sulfamoyl)-4-cyclopropylbenzoic acid] and `O=C(O)c1ccc(C2CC2)c(S(=O)(=O)Nc2cc(C(F)(F)F)ccc2-c2ccccn2)c1` [Example 72, 4-cyclopropyl-3-(N-(2-(pyridin-2-yl)-5-(trifluoromethyl)phenyl)sulfamoyl)benzoic acid] cannot be ordered by IC50: < 500 nM for the first, < 500 nM for the second.

`CCc1ccc(C(=O)O)cc1S(=O)(=O)Nc1cc(C(F)(F)F)ccc1-n1ccnc1` [Example 50, 3-(N-(2-(imidazol-1-yl)-5-(trifluoromethyl)phenyl)sulfamoyl)-4-ethylbenzoic acid] and `CCc1ccc(C(=O)O)cc1S(=O)(=O)Nc1cc(C(F)(F)F)ccc1-c1ncccc1F` [Example 66, 4-ethyl-3-(N-(2-(3-fluoropyridin-2-yl)-5-(trifluoromethyl)phenyl)sulfamoyl)benzoic acid] cannot be ordered by IC50: < 500 nM for the first, < 500 nM for the second.

`COc1ccc(C(=O)O)cc1S(=O)(=O)Nc1cc(C#N)ccc1-c1ccccn1` [Example 45, 3-(N-(5-cyano-2-(pyridin-2-yl)phenyl)sulfamoyl)-4-methoxybenzoic acid] and `CCc1ccc(C(=O)O)cc1S(=O)(=O)Nc1cc(C#N)ccc1-c1ccccn1` [Example 38, 3-(N-(5-cyano-2-(pyridin-2-yl)phenyl)sulfamoyl)-4-ethylbenzoic acid] cannot be ordered by IC50: < 500 nM for the first, < 500 nM for the second.

`Cc1ccc(-c2ccc(-c3cnsc3C)cc2NS(=O)(=O)c2cc(C(=O)O)ccc2C2CC2)s1` [Example 140, 4-cyclopropyl-3-(N-(5-(5-methylisothiazol-4-yl)-2-(5-methylthiophen-2-yl)phenyl)sulfamoyl)benzoic acid] and `Cc1sncc1-c1ccc(-c2ccc(F)s2)c(NS(=O)(=O)c2cc(C(=O)O)ccc2C2CC2)c1` [Example 142, 4-cyclopropyl-3-(N-(2-(5-fluorothiophen-2-yl)-5-(5-methylisothiazol-4-yl)phenyl)sulfamoyl)benzoic acid] cannot be ordered by IC50: < 500 nM for the first, < 500 nM for the second.

`COc1ccc(C(=O)O)cc1S(=O)(=O)Nc1cc(C#N)ccc1-n1cccc1` [Example 121, 3-(N-(5-cyano-2-(pyrrol-1-yl)phenyl)sulfamoyl)-4-methoxybenzoic acid] and `COc1ccc(C(=O)O)cc1S(=O)(=O)Nc1cc(C#N)ccc1-c1cccc(F)c1` [Example 61, 3-(N-(4-cyano-3′-fluoro-[1,1′-biphenyl]-2-yl)sulfamoyl)-4-methoxybenzoic acid] cannot be ordered by IC50: < 500 nM for the first, < 500 nM for the second.

`N#Cc1ccc(-c2ncccc2F)c(NS(=O)(=O)c2cc(C(=O)O)ccc2C2CC2)c1` [Example 152, 3-(N-(5-cyano-2-(3-fluoropyridin-2-yl)phenyl)sulfamoyl)-4-cyclopropylbenzoic acid] and `CS(=O)(=O)c1cc(NS(=O)(=O)c2cc(C(=O)O)ccc2C2CC2)c(-c2ccccn2)cc1F` [Example 172, 4-cyclopropyl-3-(N-(4-fluoro-5-(methylsulfonyl)-2-(pyridin-2-yl)phenyl)sulfamoyl)benzoic acid] cannot be ordered by IC50: < 500 nM for the first, < 500 nM for the second.

`CCc1ccc(C(=O)O)cc1S(=O)(=O)Nc1cc(C(F)(F)F)ccc1-c1ccc(C#N)s1` [Example 77, 3-(N-(2-(5-cyanothiophen-2-yl)-5-(trifluoromethyl)phenyl)sulfamoyl)-4-ethylbenzoic acid] and `COc1ccc(C(=O)O)cc1S(=O)(=O)Nc1cc(C(F)(F)F)ccc1-c1ccc(F)s1` [Example 117, 3-(N-(2-(5-fluorothiophen-2-yl)-5-(trifluoromethyl)phenyl)sulfamoyl)-4-methoxybenzoic acid] cannot be ordered by IC50: < 500 nM for the first, < 500 nM for the second.

`O=C(O)c1ccc(C2CC2)c(S(=O)(=O)Nc2cc(-c3ccns3)ccc2-c2cccc(F)c2)c1` [Example 137, 4-cyclopropyl-3-(N-(3′-fluoro-4-(isothiazol-5-yl)-[1,1′-biphenyl]-2-yl)sulfamoyl)benzoic acid] and `O=C(O)c1ccc(C2CC2)c(S(=O)(=O)Nc2cc(-c3ccns3)ccc2-c2cccs2)c1` [Example 146, 4-cyclopropyl-3-(N-(5-(isothiazol-5-yl)-2-(thiophen-2-yl)phenyl)sulfamoyl)benzoic acid] cannot be ordered by IC50: < 500 nM for the first, < 500 nM for the second.

`Cc1oncc1-c1ccc(-c2ccc(Cl)s2)c(NS(=O)(=O)c2cc(C(=O)O)ccc2C2CC2)c1` [Example 164, 3-(N-(2-(5-chlorothiophen-2-yl)-5-(5-methylisoxazol-4-yl)phenyl)sulfamoyl)-4-cyclopropylbenzoic acid] and `Cc1cc(C#N)cc(NS(=O)(=O)c2cc(C(=O)O)ccc2C2CC2)c1-c1ccc(Cl)s1` [Example 177, 3-(N-(2-(5-chlorothiophen-2-yl)-5-cyano-3-methylphenyl)sulfamoyl)-4-cyclopropylbenzoic acid] cannot be ordered by IC50: < 500 nM for the first, < 500 nM for the second.

`COc1ccc(C(=O)O)cc1S(=O)(=O)Nc1cc(S(C)(=O)=O)ccc1-c1cccs1` [Example 78, 4-methoxy-3-(N-(5-(methylsulfonyl)-2-(thiophen-2-yl)phenyl)sulfamoyl) benzoic acid] and `COc1ccc(C(=O)O)cc1S(=O)(=O)Nc1cc(S(C)(=O)=O)ccc1-c1ccc(F)s1` [Example 105, 3-(N-(2-(5-fluorothiophen-2-yl)-5-(methylsulfonyl)phenyl)sulfamoyl)-4-methoxybenzoic acid] cannot be ordered by IC50: < 500 nM for the first, < 500 nM for the second.

First: COc1ccc(C(=O)O)cc1S(=O)(=O)Nc1cc(C(F)(F)F)ccc1-n1cncn1 [Example 28, 3-(N-(2-(1,2,4-triazol-1-yl)-5-(trifluoromethyl)phenyl)sulfamoyl)-4-methoxybenzoic acid]
Second: COc1ccccc1-c1ccc(C(F)(F)F)cc1NS(=O)(=O)c1cc(C(=O)O)ccc1OC [Example 11, 4-methoxy-3-(N-(2′-methoxy-4-(trifluoromethyl)-[1,1′-biphenyl]-2-yl)sulfamoyl)benzoic acid]
The IC50 of the first is higher: > 5000 nM for the first, < 5000 nM for the second. The second is the more potent here.

`CCc1ccc(C(=O)O)cc1S(=O)(=O)Nc1cc(-n2cnnn2)ccc1-c1cccc(F)c1` [Example 53, 4-ethyl-3-(N-(3′-fluoro-4-(tetrazol-1-yl)-[1,1′-biphenyl]-2-yl)sulfamoyl) benzoic acid] and `CCc1ccc(C(=O)O)cc1S(=O)(=O)Nc1cc(S(C)(=O)=O)ccc1-c1cccc(C#N)c1` [Example 39, 3-(N-(3′-cyano-4-(methylsulfonyl)-[1,1′-biphenyl]-2-yl)sulfamoyl)-4-ethylbenzoic acid] cannot be ordered by IC50: < 500 nM for the first, < 500 nM for the second.

`O=C(O)c1ccc(C2CC2)c(S(=O)(=O)Nc2cc(C(F)(F)F)c(Cl)cc2-n2cccc2)c1` [Example 156, 3-(N-(4-chloro-2-(pyrrol-1-yl)-5-(trifluoromethyl)phenyl)sulfamoyl)-4-cyclopropylbenzoic acid] was tested, and the IC50 was < 500 nM.
